Data taken from the NIST ThermoML archive (doi:10.1021/je100803e).

Key:
[1] = for mass density / viscosity: 298.15 K, 101.3 kPa; for mass density / viscosity / vapor or sublimation pressure: Liquid; for viscosity: Capillary tube (Ostwald / Ubbelohde) method; for vapor or sublimation pressure: Ebulliometric method (Recirculating still); for Normal melting temperature: Crystal
[2] = refractive index (Na D-line) (dimensionless); conditions: 298.15 K; 101.33 kPa; Liquid; Standard Abbe refractometry
[3] = refractive index (Na D-line) (dimensionless); xn = mol fraction of the nth substance listed; conditions: 298.15 K, 101 kPa, Liquid, Standard Abbe refractometry
[4] = xn = mol fraction of the nth substance listed; conditions: 298.15 K, 101 kPa, Liquid; for viscosity: Capillary tube (Ostwald / Ubbelohde) method

CC(O)CO (centres undefined) [1,2-propanediol]
Conditions | mass density [kg/m3] | refractive index | viscosity [mPa·s]
[1] | 1031.6 | – | 44.45
[2] | – | 1.4313 | –

[1]
Conditions | vapor or sublimation pressure [kPa]
378 K | 4
398.24 K | 10
402.54 K | 12
415.13 K | 20
425.72 K | 30
433.59 K | 40
439.9 K | 50
445.2 K | 60
449.79 K | 70
453.84 K | 80
457.48 K | 90
460.79 K | 100

CC(O)CO (centres undefined) [1,2-propanediol] + CC1COC(=O)O1
x1 = 1
Conditions | mass density [kg/m3] | refractive index | viscosity [mPa·s]
[3] | – | 1.4313 | –
[4] | 1031.6 | – | 44.45

CC1COC(=O)O1 (centres undefined) [4-methyl-1,3-dioxolan-2-one]
Conditions | mass density [kg/m3] | refractive index | viscosity [mPa·s]
[1] | 1199.4 | – | 2.39
[2] | – | 1.4198 | –

[1]
Conditions | vapor or sublimation pressure [kPa]
407.97 K | 4
432.45 K | 10
437.77 K | 12
453.6 K | 20
467.23 K | 30
477.53 K | 40
485.91 K | 50

CC1COC(=O)O1 (centres undefined) [4-methyl-1,3-dioxolan-2-one] + CC(O)CO
Conditions | mass density, [4] [kg/m3] | refractive index, [3] | viscosity, [4] [mPa·s]
x2 = 0 | 1199.4 | 1.4198 | 2.39
x2 = 0.01 | – | – | 2.534
x2 = 0.05 | 1190.9 | 1.4199 | 2.436
x2 = 0.1 | 1182.4 | 1.4199 | –
x2 = 0.2 | 1166.4 | 1.4207 | 2.921
x2 = 0.3 | 1150.2 | 1.4213 | 3.55
x2 = 0.4 | 1134.2 | 1.4223 | 4.758
x2 = 0.5 | 1117.9 | 1.4235 | 6.071
x2 = 0.6 | 1101.6 | 1.4249 | 8.461
x2 = 0.7 | 1085.1 | 1.4264 | 11.82
x2 = 0.8 | 1068 | 1.4278 | 17.38
x2 = 0.9 | 1050.6 | 1.4294 | 27.54
x2 = 0.9499 | 1041.4 | 1.4305 | 35.66

CCOC(=O)CCC(=O)OCC [diethyl butanedioate]
Conditions | Normal melting temperature [°C] | mass density [kg/m3] | refractive index | viscosity [mPa·s]
[1] | -21.52 | 1035.5 | – | 2.393
[2] | – | – | 1.4179 | –

[1]
Conditions | vapor or sublimation pressure [kPa]
392.46 K | 4
417.39 K | 10
423.15 K | 12
437.53 K | 20
453.15 K | 30
462.1 K | 40
467.78 K | 50

CCOC(=O)CCC(=O)OCC [diethyl butanedioate] + O=C1CCCO1
Conditions | mass density, [4] [kg/m3] | refractive index, [3] | viscosity, [4] [mPa·s]
x2 = 0 | 1035.5 | 1.4179 | 2.393
x2 = 0.05 | 1037.5 | 1.4185 | 2.381
x2 = 0.1 | 1040 | 1.419 | 2.375
x2 = 0.2 | 1045.3 | 1.4201 | 2.356
x2 = 0.2999 | 1051.1 | 1.4213 | 2.318
x2 = 0.4 | 1057.8 | 1.4227 | 2.284
x2 = 0.5 | 1065.3 | 1.4242 | 2.226
x2 = 0.6 | 1073.8 | 1.4259 | 2.153
x2 = 0.7 | 1083.5 | 1.4278 | 2.073
x2 = 0.8 | 1094.9 | 1.4299 | 1.952
x2 = 0.9 | 1108.4 | 1.4323 | 1.817
x2 = 0.95 | 1116.2 | 1.4336 | 1.745

O [water]
Conditions | Normal melting temperature [°C]
[1] | -0.10

O [water] + O=C1CCCO1
x1 = 1
Conditions | refractive index | viscosity [mPa·s]
[3] | 1.3325 | –
[4] | – | 0.8756

O=C1CCCO1 [γ-butyrolactone]
Conditions | Normal melting temperature [°C] | mass density [kg/m3] | refractive index | viscosity [mPa·s]
[1] | -43.72 | 1124.5 | – | 1.654
[2] | – | – | 1.435 | –

[1]
Conditions | vapor or sublimation pressure [kPa]
376.99 K | 4
400.58 K | 10
405.68 K | 12
420.76 K | 20
433.66 K | 30
443.36 K | 40
451.22 K | 50
457.88 K | 60
463.68 K | 70
468.84 K | 80
473.49 K | 90
477.54 K | 100

O=C1CCCO1 [γ-butyrolactone] + CCOC(=O)CCC(=O)OCC
x1 = 1
Conditions | mass density [kg/m3] | refractive index | viscosity [mPa·s]
[3] | – | 1.435 | –
[4] | 1124.5 | – | 1.654

O=C1CCCO1 [γ-butyrolactone] + O
Conditions | mass density, [4] [kg/m3] | refractive index, [3] | viscosity, [4] [mPa·s]
x2 = 0 | 1124.5 | 1.435 | 1.654
x2 = 0.05 | 1123 | 1.4337 | 1.621
x2 = 0.1002 | 1121.5 | 1.4325 | 1.6
x2 = 0.2 | 1118.2 | 1.4295 | 1.606
x2 = 0.3 | 1115.1 | 1.4265 | 1.645
x2 = 0.4 | 1110.9 | 1.4226 | 1.706
x2 = 0.5 | 1105.9 | 1.4175 | 1.766
x2 = 0.6 | 1098.8 | 1.4116 | 1.8
x2 = 0.7 | 1088.6 | 1.4017 | 1.787
x2 = 0.8 | 1073.2 | 1.3888 | 1.668
x2 = 0.9 | 1047.1 | 1.3684 | 1.385
x2 = 0.95 | 1026.6 | 1.3531 | 1.16
